# What was measured:
# [1] = tested on: oilseed rape; experiment: Test D postemergence; type: in vivo, Brassica napus; conditions: scale 0 to 100
# Procedure, shortened: (§1)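 Visual 0–100 control ratings at 14–21 days in a controlled growth environment. Application preemergence onto silt loam or postemergence onto 2–18 cm seedlings, using a non-phytotoxic solvent formulation with surfactant.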
# [2] = tested on: field poppy; experiment: Test D postemergence; type: in vivo, Papaver rhoeas; conditions: scale 0 to 100
# Procedure, shortened: as §1
# [3] = tested on: galium; experiment: Test D preemergence; type: in vivo, Galium aparine; conditions: for Plant response rating, Galium: Preemergence, scale 0 to 100
# Excerpt: (§2) Seeds of plant species selected from bluegrass (annual bluegrass, Poa annua), blackgrass (Alopecurus myosuroides), canarygrass (littleseed canarygrass, Phalaris minor), chickweed (common chickweed, Stellaria media), galium (catchweed bedstraw, Galium aparine), bromegrass, downy (downy bromegrass, Bromus tectorum), field poppy (Papaver rhoeas), field violet (Viola arvensis), foxtail, green (green foxtail, Setaria viridis), deadnettle (henbit deadnettle, Lamium amplexicaule), ryegrass, Italian (Italian ryegrass, Lolium multiflorum), kochia (Kochia scoparia), lambsquarters (Chenopodium album), oilseed rape (Brassica napus), pigweed (redroot pigweed, Amaranthus retroflexus), chamomile (scentless chamomile, Matricaria inodora), speedwell (bird's-eye speedwell, Veronica persica), barley, spring (spring barley, Hordeum vulgare), wheat, spring (spring wheat, Triticum aestivum), buckwheat, wild (wild buckwheat, Polygonum convolvulus), mustard, wild (wild mustard, Sinapis arvensis), oat, wild (wild oat, Avena fatua), radish, wild (wild radish, Raphanus raphanistrum), windgrass (Apera spica-venti), Russian thistle (Salsola kali), barley, winter (winter barley, Hordeum vulgare), and wheat, winter (winter wheat, Triticum aestivum) were planted into a silt loam soil and treated preemergence with test chemicals formulated in a non-phytotoxic solvent mixture which included a surfactant.
# (§3) At the same time, these species were planted in pots containing Redi-Earth® planting medium (Scotts Company, 14111 Scottslawn Road, Marysville, Ohio 43041) comprising spaghnum peat moss, vermiculite, wetting agent and starter nutrients and treated with postemergence applications of the test chemicals formulated in the same manner. Plants ranged in height from 2 to 18 cm (1- to 4-leaf stage). Treated plants and controls were maintained in a controlled growth environment for 14 to 21 days after which time all species were compared to controls and visually evaluated. Plant response ratings, summarized in Table D, are based on a scale of 0 to 100 where 0 is no effect and 100 is complete control. A dash (-) response means no test result.
# [4] = tested on: lambsquarters; experiment: Test D preemergence; type: in vivo, Chenopodium album; conditions: for Plant response rating, Lambsquarters: Preemergence, scale 0 to 100
# Procedure, shortened: as §1
# [5] = tested on: speedwell; experiment: Test D postemergence; type: in vivo, Veronica persica; conditions: scale 0 to 100
# Procedure, shortened: as §1
# [6] = tested on: kochia; experiment: Test D preemergence; type: in vivo, Kochia scoparia; conditions: for Plant response rating, Kochia: Preemergence, scale 0 to 100
# Excerpt: as §2, §3
# [7] = tested on: bromegrass, downy; experiment: Test D postemergence; type: in vivo, Bromus tectorum; conditions: scale 0 to 100
# Procedure, shortened: as §1
# [8] = tested on: blackgrass; experiment: Test D preemergence; type: in vivo, Alopecurus myosuroides; conditions: for Plant response rating, Blackgrass: Preemergence, scale 0 to 100
# Excerpt: as §2, §3
# [9] = tested on: field violet; experiment: Test D postemergence; type: in vivo, Viola arvensis; conditions: scale 0 to 100
# Excerpt: as §2, §3
# [10] = tested on: chamomile; experiment: Test D postemergence; type: in vivo, Matricaria inodora; conditions: scale 0 to 100
# Procedure, shortened: as §1
# [11] = tested on: oat, wild; experiment: Test D preemergence; type: in vivo, Avena fatua; conditions: for Plant response rating, Oat, Wild: Preemergence, scale 0 to 100
# Procedure, shortened: as §1
# [12] = tested on: canarygrass; experiment: Test D postemergence; type: in vivo, Phalaris minor; conditions: scale 0 to 100
# Excerpt: as §2, §3
# [13] = tested on: bromegrass, downy; experiment: Test D preemergence; type: in vivo, Bromus tectorum; conditions: for Plant response rating, Bromegrass, Downy: Preemergence, scale 0 to 100
# Excerpt: as §2, §3
# [14] = tested on: chamomile; experiment: Test D preemergence; type: in vivo, Matricaria inodora; conditions: for Plant response rating, Chamomile: Preemergence, scale 0 to 100
# Procedure, shortened: as §1
# [15] = tested on: lambsquarters; experiment: Test D postemergence; type: in vivo, Chenopodium album; conditions: scale 0 to 100
# Excerpt: as §2, §3
# [16] = tested on: oat, wild; experiment: Test D postemergence; type: in vivo, Avena fatua; conditions: scale 0 to 100
# Procedure, shortened: as §1
# [17] = tested on: bluegrass; experiment: Test D postemergence; type: in vivo, Poa annua; conditions: scale 0 to 100
# Procedure, shortened: as §1
# [18] = tested on: radish, wild; experiment: Test D postemergence; type: in vivo, Raphanus raphanistrum; conditions: scale 0 to 100
# Excerpt: as §2, §3
# [19] = tested on: windgrass; experiment: Test D postemergence; type: in vivo, Apera spica-venti; conditions: scale 0 to 100
# Excerpt: as §2, §3
# [20] = 16 g ai/ha, taken as preemergence
compound,measurement,setting,value
CCc1cc(C(=O)NOC(C)C)nn1Cc1cccc(OC(F)(F)F)c1 [Compound 70],"Plant response rating, Oilseed Rape","[1]; Postemergence, 16 g ai/ha",20
same,Oilseed Rape plant response rating,"[1]; Postemergence, 31 g ai/ha",40
same,Oilseed Rape plant response rating,"[1]; Postemergence, 125 g ai/ha",60
same,Oilseed Rape plant response rating,"[1]; Postemergence, 250 g ai/ha",80
same,Oilseed Rape plant response rating,"[1]; postemergence, 62 g ai/ha",50
same,"Plant response rating, Field Poppy","[2]; Postemergence, 16 g ai/ha",20
same,Field Poppy plant response rating,"[2]; Postemergence, 31 g ai/ha",70
same,Field Poppy plant response rating,"[2]; Postemergence, 125 g ai/ha",80
same,Field Poppy plant response rating,"[2]; Postemergence, 250 g ai/ha",100
same,Field Poppy plant response rating,"[2]; postemergence, 62 g ai/ha",75
same,"Plant response rating (scale 0 to 100), Galium",[3]; [20],0
same,"Plant response rating, Galium",[3]; 31 g ai/ha,0
same,"Plant response rating, Galium",[3]; 62 g ai/ha,10
same,"Plant response rating, Galium",[3]; 250 g ai/ha,40
same,"Plant response rating (scale 0 to 100), Lambsquarters",[4]; [20],0
same,"Plant response rating, Lambsquarters",[4]; 31 g ai/ha,0
same,"Plant response rating, Lambsquarters",[4]; 62 g ai/ha,0
same,"Plant response rating, Lambsquarters",[4]; 125 g ai/ha,100
same,"Plant response rating, Lambsquarters",[4]; 250 g ai/ha,100
same,"Plant response rating, Speedwell","[5]; Postemergence, 16 g ai/ha",100
same,Speedwell plant response rating,"[5]; Postemergence, 31 g ai/ha",100
same,Speedwell plant response rating,"[5]; Postemergence, 125 g ai/ha",100
same,Speedwell plant response rating,"[5]; Postemergence, 250 g ai/ha",100
same,Speedwell plant response rating,"[5]; postemergence, 62 g ai/ha",100
same,"Plant response rating (scale 0 to 100), Kochia",[6]; [20],0
same,"Plant response rating, Kochia",[6]; 31 g ai/ha,10
same,"Plant response rating, Kochia",[6]; 62 g ai/ha,20
same,"Plant response rating, Kochia",[6]; 125 g ai/ha,30
same,"Plant response rating, Kochia",[6]; 250 g ai/ha,50
same,"Plant response rating, Bromegrass, Downy","[7]; Postemergence, 16 g ai/ha",0
same,"Bromegrass, Downy plant response rating","[7]; Postemergence, 31 g ai/ha",0
same,"Bromegrass, Downy plant response rating","[7]; Postemergence, 125 g ai/ha",0
same,"Bromegrass, Downy plant response rating","[7]; Postemergence, 250 g ai/ha",10
same,"Bromegrass, Downy plant response rating","[7]; postemergence, 62 g ai/ha",0
same,"Plant response rating (scale 0 to 100), Blackgrass",[8]; [20],0
same,"Plant response rating, Blackgrass",[8]; 31 g ai/ha,0
same,"Plant response rating, Blackgrass",[8]; 62 g ai/ha,5
same,"Plant response rating, Blackgrass",[8]; 125 g ai/ha,10
same,"Plant response rating, Blackgrass",[8]; 250 g ai/ha,30
same,"Plant response rating, Field Violet","[9]; Postemergence, 16 g ai/ha",20
same,Field Violet plant response rating,"[9]; Postemergence, 31 g ai/ha",40
same,Field Violet plant response rating,"[9]; Postemergence, 125 g ai/ha",75
same,Field Violet plant response rating,"[9]; Postemergence, 250 g ai/ha",75
same,Field Violet plant response rating,"[9]; postemergence, 62 g ai/ha",40
same,"Plant response rating, Chamomile","[10]; Postemergence, 16 g ai/ha",10
same,Chamomile plant response rating,"[10]; Postemergence, 31 g ai/ha",30
same,Chamomile plant response rating,"[10]; Postemergence, 125 g ai/ha",40
same,Chamomile plant response rating,"[10]; Postemergence, 250 g ai/ha",50
same,Chamomile plant response rating,"[10]; postemergence, 62 g ai/ha",30
same,"Plant response rating (scale 0 to 100), Oat, Wild",[11]; [20],0
same,"Plant response rating, Oat, Wild",[11]; 31 g ai/ha,0
same,"Plant response rating, Oat, Wild",[11]; 62 g ai/ha,0
same,"Plant response rating, Oat, Wild",[11]; 125 g ai/ha,5
same,"Plant response rating, Oat, Wild",[11]; 250 g ai/ha,30
same,"Plant response rating, Canarygrass","[12]; Postemergence, 16 g ai/ha",0
same,Canarygrass plant response rating,"[12]; Postemergence, 31 g ai/ha",0
same,Canarygrass plant response rating,"[12]; Postemergence, 125 g ai/ha",0
same,Canarygrass plant response rating,"[12]; Postemergence, 250 g ai/ha",10
same,Canarygrass plant response rating,"[12]; postemergence, 62 g ai/ha",0
same,"Plant response rating (scale 0 to 100), Bromegrass, Downy",[13]; [20],0
same,"Plant response rating, Bromegrass, Downy",[13]; 31 g ai/ha,0
same,"Plant response rating, Bromegrass, Downy",[13]; 62 g ai/ha,0
same,"Plant response rating, Bromegrass, Downy",[13]; 125 g ai/ha,10
same,"Plant response rating, Bromegrass, Downy",[13]; 250 g ai/ha,20
same,"Plant response rating (scale 0 to 100), Chamomile",[14]; [20],0
same,"Plant response rating, Chamomile",[14]; 31 g ai/ha,0
same,"Plant response rating, Chamomile",[14]; 62 g ai/ha,0
same,"Plant response rating, Chamomile",[14]; 125 g ai/ha,15
same,"Plant response rating, Chamomile",[14]; 250 g ai/ha,40
same,"Plant response rating, Lambsquarters","[15]; Postemergence, 16 g ai/ha",80
same,Lambsquarters plant response rating,"[15]; Postemergence, 31 g ai/ha",85
same,Lambsquarters plant response rating,"[15]; Postemergence, 125 g ai/ha",98
same,Lambsquarters plant response rating,"[15]; Postemergence, 250 g ai/ha",98
same,Lambsquarters plant response rating,"[15]; postemergence, 62 g ai/ha",98
same,"Plant response rating, Oat, Wild","[16]; Postemergence, 16 g ai/ha",0
same,"Oat, Wild plant response rating","[16]; Postemergence, 31 g ai/ha",0
same,"Oat, Wild plant response rating","[16]; Postemergence, 125 g ai/ha",0
same,"Oat, Wild plant response rating","[16]; Postemergence, 250 g ai/ha",10
same,"Oat, Wild plant response rating","[16]; postemergence, 62 g ai/ha",0
same,"Plant response rating, Bluegrass","[17]; Postemergence, 16 g ai/ha",0
same,Bluegrass plant response rating,"[17]; Postemergence, 31 g ai/ha",0
same,Bluegrass plant response rating,"[17]; Postemergence, 125 g ai/ha",0
same,Bluegrass plant response rating,"[17]; Postemergence, 250 g ai/ha",0
same,Bluegrass plant response rating,"[17]; postemergence, 62 g ai/ha",0
same,"Plant response rating, Radish, Wild","[18]; Postemergence, 16 g ai/ha",10
same,"Radish, Wild plant response rating","[18]; Postemergence, 31 g ai/ha",10
same,"Radish, Wild plant response rating","[18]; Postemergence, 125 g ai/ha",50
same,"Radish, Wild plant response rating","[18]; Postemergence, 250 g ai/ha",85
same,"Radish, Wild plant response rating","[18]; postemergence, 62 g ai/ha",10
same,"Plant response rating, Windgrass","[19]; Postemergence, 16 g ai/ha",0
same,Windgrass plant response rating,"[19]; Postemergence, 31 g ai/ha",0
same,Windgrass plant response rating,"[19]; Postemergence, 125 g ai/ha",0
same,Windgrass plant response rating,"[19]; Postemergence, 250 g ai/ha",0
same,Windgrass plant response rating,"[19]; postemergence, 62 g ai/ha",0

# Source: patent US20150105252A1, “SUBSTITUTED PYRAZOLES AS HERBICIDES” (E I DU PONT DE NEMOURS AND COMPANY, priority 2013, published 2015)
